Data reported in patent US4489052A, “Quantitative autoradiographic mapping of focal herpes simplex virus encephalitis using a radiolabeled antiviral drug” (priority 1982, dated 1984).

Legend:
HSV = conditions: NIAID Collaborative Study; cited from earlier work
[1] = rat, in vivo
Description: (§1) These initial studies reflect observations on ten rats receiving ^14 C-FMAU. Seven of these were infected, and three uninfected control rats were subjected to a cortical freeze lesion (13) to test the effects of necrosis and breakdown of the blood-brain barrier on drug distribution.

[2] = Arterial plasma ^14 C activity by liquid scintillation counting; conditions: representative infected rat
HSV-1 = test: Quantitative autoradiography of ^14 C-FMAU uptake in HSV-1-infected rats (focal encephalitis); conditions: for ^14 C Radioactivity Concentration: ± SD
Description: as §1

[3] = rat; cited from earlier work

In the case of `Nc1ncnc2c1ncn2[C@@H]1O[C@H](CO)[C@@H](O)[C@@H]1O` [ara-A], the “therapeutic effect in HSV encephalitis” value (HSV) is listed as “less than optimal”.

For `Cc1cn([C@@H]2O[C@H](CO)[C@@H](O)[C@@H]2F)[14c](=O)[nH]c1=O` [^14 C-FMAU], the “isotope uptake in or surrounding the area of necrosis” value [1] was “no increase in isotope uptake was detected”, the “plasma ^14 C-FMAU concentration time course” value ([2]; 5 mg/kg i.v., to 6 hours) was “fell rapidly over the first 30 mins and more slowly thereafter” and the “plasma ^14 C-FMAU concentration at the time of sacrifice” value ([2]; 6 hours after 5 mg/kg i.v.) was “approximately 185 nCi/gm”. The “isotope uptake within infected brain regions” value (HSV-1; 24 hours after isotope injection) was “similarly enhanced within infected brain regions”, the “activity in lateral walls of the lateral ventricles” value (HSV-1; 24 hours, apparently uninfected ependymal lining) was “higher activity was noted” and the “^14 C Radioactivity Concentration” value (HSV-1; Brain (C): Background, left cortex, viral antigen -, 6 hours) was 104.35 ± 4.88 nCi/gm. For the same molecule, the “^14 C Radioactivity Concentration” value (HSV-1; Brain (C): Left ventricular choroid plexus, viral antigen -, 6 hours) was 188.59 ± 9.18 nCi/gm, the “^14 C Radioactivity Concentration” value (HSV-1; Brain (C): Optic chiasm, right, viral antigen +, 6 hours) was 325.12 ± 16.46 nCi/gm and the “^14 C Radioactivity Concentration” value (HSV-1; Brain (D): Background, left cortex, viral antigen -, 6 hours) was 95.29 ± 4.32 nCi/gm. For the same molecule, the “^14 C Radioactivity Concentration” value (HSV-1; Brain (D): Left hypothalamus, viral antigen +, 6 hours) was 1170.91 ± 66.90 nCi/gm, the “^14 C Radioactivity Concentration” value (HSV-1; Brain (D): Left optic tract, viral antigen +, 6 hours) was 1105.89 ± 77.34 nCi/gm and the “^14 C Radioactivity Concentration” value (HSV-1; Brain (D): Right hypothalamus, viral antigen +, 6 hours) was 1138.10 ± 99.57 nCi/gm. For the same molecule, the “^14 C Radioactivity Concentration” value (HSV-1; Brain (E): Background, left cortex, viral antigen -, 6 hours) was 96.78 ± 4.66 nCi/gm, the “^14 C Radioactivity Concentration” value (HSV-1; Brain (E): Background, right central thalamus, viral antigen -, 6 hours) was 67.47 ± 3.90 nCi/gm and the “^14 C Radioactivity Concentration” value (HSV-1; Brain (E): Left dorsomedial thalamus, viral antigen +, 6 hours) was 1183.53 ± 163.31 nCi/gm. The “^14 C Radioactivity Concentration” value (HSV-1; Brain (E): Left lateral thalamus, viral antigen +, 6 hours) was 198.21 ± 21.00 nCi/gm, the “^14 C Radioactivity Concentration” value (HSV-1; Brain (F): Background, left cortex, viral antigen -, 6 hours) was 106.57 ± 5.53 nCi/gm and the “^14 C Radioactivity Concentration” value (HSV-1; Brain (F): Central midbrain, viral antigen +, 6 hours) was 468.81 ± 23.96 nCi/gm. The “^14 C Radioactivity Concentration” value (HSV-1; Brain (G): Background, central brainstem, viral antigen -, 6 hours) was 110.97 ± 9.98 nCi/gm, the “^14 C Radioactivity Concentration” value (HSV-1; Brain (G): Background, left cortex, viral antigen -, 6 hours) was 83.08 ± 7.70 nCi/gm and the “^14 C Radioactivity Concentration” value (HSV-1; Brain (G): Pineal gland, viral antigen +, 6 hours) was 1509.18 ± 97.65 nCi/gm. The “^14 C Radioactivity Concentration” value (HSV-1; Eye (B): Retina, inferior, viral antigen +, 6 hours) was 1528.07 ± 140.36 nCi/gm, the “^14 C Radioactivity Concentration” value (HSV-1; Eye (B): Retina, posterior, viral antigen +, 6 hours) was 2447.81 ± 172.66 nCi/gm and the “^14 C Radioactivity Concentration” value (HSV-1; Liver, viral antigen staining -, 6 hours after ^14 C-FMAU (5 mg/kg i.v.)) was 188.25 ± 13.19 nCi/gm. The “^14 C activity within infected regions vs background” value (HSV-1; each HSV-1-infected rat) was “exceeded background within infected regions and correlating closely with viral antigen staining in each case”, the “selectivity of uptake by infected brain cells” value (HSV-1; radiolabeled FMAU, HSV-1 infection) was “selectively taken up by infected brain cells” and the “background distribution of ^14 C activity” value (HSV-1; uninfected brain regions, 6 hours) was “quite uniform, with only minor variations among uninfected brain regions”.

For `Cc1cn([C@@H]2O[C@H](CO)[C@@H](O)[C@@H]2F)c(=O)[nH]c1=O` [FMAU], the metabolic alteration [3] is given as “only a minor fraction undergoes metabolic alteration”.
